The values below come from paper PMC8635108, “Identification of Novel Type Three Secretion System (T3SS) Inhibitors by Computational Methods and Anti-Salmonella Evaluations” (Frontiers in Pharmacology, 2021).

Common to all, as to assay type: cell-based
The nature of data set [1]: In vitro cytotoxicity assay (MTT). To be noted: mouse, RAW 264.7 cells, read-out: cell viability. On the procedure:
To study the cytotoxic effects of compounds on cell viability, the RAW 264.7 cells were seeded into 96-well plates at 1 ×10^4 cells/well and allowed to attach for 24 h. The medium was replaced with 100 μL medium containing the indicated concentrations of compounds and further incubated for 24 h. Each well was added 10 μL MTT (5 mg/ml in PBS) and the plates were incubated for 4 h at 37°C. Supernatants were aspirated and formed formazan was dissolved in 100 μL of dimethyl sulfoxide (DMSO). The optical density (OD) was measured at an absorbance wavelength of 490 nm using a Microplate Reader (Tecan, Switzerland).

For data set [2], the system named is S. typhimurium invasion of human epithelial cell line (Henle 407). Put plainly: Salmonella invasion assay. To be noted: Henle 407 cells, triplicate. On the procedure: The effect of T3SS inhibitor candidates on the ability of S. typhimurium to invade a cultured human epithelial cell line (Henle 407) was performed in a method similar to one previously described ([Chatterjee et al., 2011]). Henle 407 cells were grown in DMEM with 10% fetal calf serum at 37°C in 5% CO2 in 24-well plates. The plasmid pRK2-SipD with WT SipD was electroporated into the S. typhimurium SipD ^− strain and single colonies were inoculated into LB media supplemented with 25 mg/L trimethoprim, 50 mg/L ampicillin, 50 mg/L kanamycin and grown in standing cultures overnight. A 10 ml LB culture with 1 mM IPTG was inoculated with 1 ml of overnight bacterial growth, and incubated at 37°C on standing for 2.5–3 h. Approximately 15–30 uL of bacterial suspension was added with 300 uL DMEM into the Henle 407 cells and incubated at 37°C for 60 min to allow invasion before the suspension was removed by aspiration. The Henle 407 cells were incubated with fresh DMEM with 100 mg/L of gentamycin for 1.5 h, aspirated, rinsed with DMEM, and lysed with 1% Triton X-100 to free the entrapped bacteria. The number of bacterial colonies, which correlated with invasiveness, was estimated by serial dilution and plating. The Salmonella invasion assay was done in triplicate.

In the next data set the test system is S. abortus equi. In words: In vitro anti-Salmonella bioassay (MIC). The note with it: Salmonella enterica, 37°C 24 h, mean ± SD, three times. The protocol:
(§1) The anti-Salmonella activities of these compounds were performed according to the previous reported protocol ([Wei et al., 2016]), using the minimum inhibitory concentration (MIC) with different strains, including S. enteritidis, S. typhi, S. typhimurium, S. paratyphi, S. and abortus equi. Gatifloxacin was used as positive controls. The test compounds 5, 19, and 32 in DMSO were prepared and then poured into 96-well plates. The final concentration of o.39–100 μg/ml underwent a twofold serial dilution. The bacteria were incubated with a series of different concentrations of compounds at 37°C for 24 h. The microbacterial growth was measured at the absorption of 630 nm. All experiments were carried out in triplicate.

In another data set the test system is S. paratyphi. Put plainly: In vitro anti-Salmonella bioassay (MIC). The note with it: Salmonella enterica, 24 h. On the procedure:
as §1

The test system of another data set is S. typhimurium. Put plainly: In vitro anti-Salmonella bioassay (MIC). To be noted: Salmonella enterica, 37°C 24 h, mean ± SD, three times. The protocol:
as §1

The next data set deals with S. enteritidis. Put plainly: In vitro anti-Salmonella bioassay (MIC). To be noted: Salmonella enterica, 37°C 24 h, mean ± SD, three times. The protocol: as §1
The subject of the next data set is S. typhi. Put plainly: In vitro anti-Salmonella bioassay (MIC). The note with it: Salmonella enterica, 37°C 24 h, mean ± SD, three times. On the procedure: as §1
For data set [3], the system named is S. typhimurium in RAW 264.7 cells. Put plainly: Intracellular killing assay. The note with it: 1 h, vs non-treated S. typhimurium group. On the procedure:
The intracellular killing experiment was performed according to the previous reported protocol ([Birhanu et al., 2018]). RAW 264.7 cells (10^5 cells/ml) were cultured in 24-well plates, and then treated with S. Typhimurium (10^7 CFU/ml) and further incubated for 45 min. After the cells were washed, the compound 5 (8 μg/ml), […] (19 μg/ml) and 32 (34 μg/ml) or gatifloxacin (3 μg/ml) were respectively added and incubated for 1 h at 37 °C. Finally, cells were treated with gentamicin (100 μg/ml) for 1 h and lysed with 0.1% of trition × 100 before being serially diluted and plated on LB agar. The cells infected with S. Typhimurium without treatment was used as the control.

In brackets after ≈: the same amount, converted by molar mass.

Regarding `O=C(O)c1ccc(Cn2nnc3sc4c(c3c2=O)CCCC4)cc1` [Compound 5], the viability (commonly a read-out of living cells in per cent, often relative to untreated cells) at 24 h, 8 μg/ml in data set [1] (8 μg/ml) came out at 84.2 ± 5.45%. For the same molecule, in data set [2], the effect on invasiveness result was “most drastic effect on the invasiveness”. The minimum inhibitory concentration (MIC) (as a rule, the lowest concentration that inhibits growth of the organism) in the data set on S. abortus equi worked out at 5 ± 1 µg/mL (≈ 14.6 µM); in the data set on S. paratyphi it was 24.3 ± 3.5 µg/mL (≈ 71.2 µM); against S. typhimurium, 8 ± 2 µg/mL (≈ 23.4 µM); with S. enteritidis it was 31.6 ± 3.6 µg/mL (≈ 92.6 µM); against S. typhi it was 12.3 ± 2.1 µg/mL (≈ 36 µM). The “decrease of intracellular survival of S. typhimurium” value (shortened to “decrease”) in data set [3] (8 μg/ml) came out at 44.4%.
Regarding `Nc1c(S(=O)(=O)O)ccc2c1C(=O)c1ccccc1C2=O` [Compound 19], the viability at 24 h, 19 μg/ml in data set [1] (19 μg/ml) was 91.5 ± 7.09%. Moreover, the effect on invasiveness result in data set [2] was “most drastic effect on the invasiveness”. In addition, the MIC against S. abortus equi turned out to be 3 ± 1 µg/mL (≈ 9.89 µM); with S. paratyphi, 16.3 ± 3.1 µg/mL (≈ 53.7 µM); in the data set on S. typhimurium it was 19.1 ± 3.1 µg/mL (≈ 63 µM); with S. enteritidis it was 53.3 ± 4.9 µg/mL (≈ 176 µM); in the data set with S. typhi, 31.6 ± 5 µg/mL (≈ 104 µM). Besides, the “decrease” value in data set [3] (19 μg/ml) is 32.5%.
Take `Nc1c(-c2ccc(Cl)cc2)cnn1-c1ccc(C(=O)O)cc1` [Compound 32]: the viability at 24 h, 34 μg/ml in data set [1] (34 μg/ml) is 86.4 ± 6.04%. For the same molecule, in data set [2], the effect on invasiveness entry is given as “most drastic effect on the invasiveness”. The MIC with S. abortus equi was 1.2 ± 0.3 µg/mL (≈ 3.82 µM); against S. paratyphi it was 22 ± 2.6 µg/mL (≈ 70.1 µM); in the data set with S. typhimurium, 34.3 ± 3.8 µg/mL (≈ 109 µM); against S. enteritidis it was 22 ± 3 µg/mL (≈ 70.1 µM); against S. typhi it was 44 ± 4.6 µg/mL (≈ 140 µM). For the same molecule, the “decrease” value in data set [3] (34 μg/ml) is on record as 52.2%.
For the molecule `COc1c(N2CCNC(C)C2)c(F)cc2c(=O)c(C(=O)O)cn(C3CC3)c12` (stereo not drawn) [Gatifloxacin, reference compound], the MIC in the data set with S. abortus equi was determined as 2 ± 1 µg/mL (≈ 5.33 µM); with S. paratyphi, 3 ± 1.7 µg/mL (≈ 7.99 µM); with S. typhimurium, 3.3 ± 1.2 µg/mL (≈ 8.79 µM); with S. enteritidis it was 7.7 ± 1.5 µg/mL (≈ 20.5 µM); in the data set with S. typhi, 9.7 ± 2.5 µg/mL (≈ 25.8 µM). Also, in data set [3] (3 μg/ml), the “intracellular survival suppression of S. typhimurium” value is on record as 60.2%.
